Where only a bound is given, the exact number is not on record here.

The experiment deals with T1, rat A2B receptors (rA2B) (Rattus norvegicus, UniProt P29276).
T1 construct: expressed in transfected cells; membranes)
T1 sequence (P29276 1-332): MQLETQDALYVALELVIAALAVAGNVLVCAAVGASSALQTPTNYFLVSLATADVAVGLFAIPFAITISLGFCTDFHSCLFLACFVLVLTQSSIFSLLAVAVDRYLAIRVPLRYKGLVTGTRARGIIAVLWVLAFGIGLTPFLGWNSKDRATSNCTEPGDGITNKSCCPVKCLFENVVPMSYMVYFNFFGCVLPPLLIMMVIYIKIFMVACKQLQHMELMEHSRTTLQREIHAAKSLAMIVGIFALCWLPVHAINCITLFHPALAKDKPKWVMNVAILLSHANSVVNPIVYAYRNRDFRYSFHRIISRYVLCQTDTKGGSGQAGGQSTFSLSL
The experiment in a line: Radioligand binding, displacement of specific [125I]ABOPX binding. Conditions: displacement of specific [125I]ABOPX binding at rat A2B receptors expressed in HEK-293 cells; read-out: RatA2B Ki. An excerpt: The rat A2B receptor cDNA was subcloned into the expression plasmid pDoubleTrouble using techniques described in Robeva, A. et al., Biochem. Pharmacol., 51, 545-555 (1996). The plasmid was amplified in competent JM109 cells and plasmid DNA isolated using Wizard Megaprep columns (Promega Corporation, Madison, Wis.). A2B adenosine receptors were introduced into HEK-293 cells by means of Lipofectin as described in Felgner, P. L. et al., Proc. Natl. Acad. Sci. USA, 84, 7413-7417 (1987).
Transfected HEK cells were grown under 5% CO2/[…] humidified atmosphere at a temperature of 37° C. Colonies were selected by growth of cells in 0.6 mg/mL G418. Transfected cells were maintained in DMEM supplemented with Hams F 12 nutrient mixture (1/1), 10% newborn calf serum, 2 mM glutamine and containing 50 IU/mL penicillin, […], and 0.2 mg/mL Geneticin (G418, Boehringer Mannheim). Cells were cultured in 10 cm diameter round plates and subcultured when grown confluent (approximately after 72 hours).
At A2B receptors: Confluent monolayers of HEK-A2B cells were washed with PBS followed by ice cold Buffer A (10 mM HEPES, 10 mM EDTA, pH 7.4) with protease inhibitors (10 μg/mL benzamidine, 100 μM phenylmethanesulfonyl fluoride, and 2 μg/mL of each aprotinin, pepstatin and leupeptin). The cells were homogenized in a Polytron (Brinkmann) for 20s, centrifuged at 30,000 ×g, and the pellets washed twice with buffer HE (10 mM HEPES, 1 mM EDTA, pH 7.4 with protease inhibitors). The final pellet was resuspended in buffer HE, supplemented with 10% sucrose and frozen in aliquots at −80° C. For binding assays membranes were thawed and diluted 5-10 fold with HE to a final protein concentration of approximately 1 mg/mL. To determine protein concentrations, membranes, and bovine serum albumin standards were dissolved in 0.2% NaOH/0.01% SDS and protein determined using fluorescamine fluorescence. Stowell, C. P. et al., Anal. Biochem., 85, 572-580 (1978).
Saturation binding assays for rat A2B adenosine receptors were performed with [^3H]ZM214,385 (17 Ci/mmol, Tocris Cookson, Bristol UK) (Ji, X. et al., Drug Design Discov., 16, 216-226 (1999)) or ^125I-ABOPX (2200 Ci/mmol). To prepare 125I-ABOPX, 10 μL of 1 mM ABOPX in methanol/1 M NaOH (20:1) was added to 50 μL of 100 mM phosphate buffer, pH 7.3. One or 2 mCi of Na^125I was added, followed by 10 μL of 1 mg/mL chloramine-T in water. After incubation, 20 minutes at room temperature, 50 μL of 10 mg/mL Na-metabisulfite in water was added to quench the reaction. The reaction mixture was applied to a C18 HPLC column, eluting with a mixture of methanol and 5 mM phosphate, pH 6.0. After 5 min at 35% methanol, the methanol concentration was ramped to 100% over 15 min. Unreacted ABOPX eluted in 11-12 minutes; ^125I-ABOPX eluted at 18-19 min in a yield of 50-60% with respect to the initial ^125I.
In equilibrium binding assays the ratio of ^127I/^125I-ABOPX was 10-20/1. Radioligand binding experiments were performed in triplicate with 20-25 μg membrane protein in a total volume of 0.1 mL HE buffer supplemented with 1 U/mL adenosine deaminase and 5 mM MgCl2. The incubation time was 3 h at 21° C. Nonspecific binding was measured in the presence of 100 μM NECA. Competition experiments were carried out using 0.6 nM ^125I-ABOPX. Membranes were filtered on Whatman GF/C filters using a Brandel cell harvester (Gaithersburg, Md.) and washed 3 times over 15-20 seconds with ice cold buffer (10 mM Tris, 1 mM MgCl2, pH 7.4). Bmax and KD values were calculated by Marquardt's nonlinear least squares interpolation for single a site binding models. Marquardt, D. M., J. Soc. Indust. Appl. Math., 11, 431-441.21 (1963). Ki values for different compounds were derived from IC50 values as described. Linden, J., J. Cycl. Nucl. Res., 8, 163-172 (1982). Data from replicate experiments are tabulated as means ±SEM. […]
One may read the Ki as a dissociation constant, usually derived from enzyme kinetics or from competition with a known ligand. For `CCCn1c(=O)c2[nH]c(-c3ccc(NN)nc3)nc2n(CCC)c1=O` [Compound 1, 1,3-Dipropyl-8-[6-hydrazino-3-pyridyl]xanthine], the inhibitory constant (Ki) lay in the range of 100 to 500 nM.
Next, `CCn1c(=O)c2[nH]c(-c3ccc(-n4nc(C)cc4-c4ccccc4)nc3)nc2n(CC)c1=O` [Compound 2, 1,3-diethyl-8-(6-(3-methyl-5-phenyl-1H-pyrazol-1-yl)pyridin-3-yl)-1H-purine-2,6(3H,7H)-dione]: 500 to 5000 nM; `CCn1c(=O)c2[nH]c(-c3ccc4nnc(C(F)(F)F)n4c3)nc2n(CC)c1=O` [Compound 3, 1,3-Diethyl-8-(3-(trifluoromethyl)-[1,2,4]triazolo[4,3,a]pyridin-6-yl)-1H-purine-2,6(3H,7H)-dione]: 100 to 500 nM.
As for `CCn1c(=O)c2[nH]c(-c3ccc4nnc(C)n4c3)nc2n(CC)c1=O` [Compound 4, 1,3-Diethyl-8-(3-methyl-[1,2,4]triazolo[4,3,a]pyridin-6-yl)-1H-purine-2,6(3H,7H)-dione], the Ki lay within 100 to 500 nM.
Next, `CCCn1c(=O)c2[nH]c(-c3ccc(-n4nc(C)cc4-c4ccccc4)nc3)nc2n(CCC)c1=O` [Compound 5, 8-(6-(3-methyl-5-phenyl-1H-pyrazol-1-yl)pyridin-3-yl)-1,3-Dipropyl-1H-purine-2,6(3H,7H)-dione]: 100 to 500 nM.
For the compound `CCCn1c(=O)c2[nH]c(-c3ccc(-n4nc(C(F)(F)F)cc4-c4cccs4)nc3)nc2n(CCC)c1=O` [Compound 8, 8-(6-(3-(trifluoromethyl)-5-(thiophen-2-yl)-1H-pyrazol-1-yl)pyridin-3-yl)-1,3-Dipropyl-1H-purine-2,6(3H, 7H)-dione], the Ki was 100 to 500 nM.
`CCCn1c(=O)c2[nH]c(-c3ccc(-n4nc(C(F)(F)F)cc4-c4ccco4)nc3)nc2n(CCC)c1=O` [Compound 9, 8-(6-(3-(trifluoromethyl)-5-(furan-2-yl)-1H-pyrazol-1-yl)pyridin-3-yl)-1,3-Dipropyl-1H-purine-2,6(3H, 7H)-dione]: the Ki is less than 100 nM.
As to `CCCn1c(=O)c2[nH]c(-c3ccc(-n4nc(C)cc4C)nc3)nc2n(CCC)c1=O` [Compound 10], the Ki was in the range of 100 to 500 nM.
Next, `CCCn1c(=O)c2[nH]c(-c3ccc(-n4nc(C(=O)OCC)cc4C)nc3)nc2n(CCC)c1=O` [Compound 13]: 100 to 500 nM; `CCCn1c(=O)c2[nH]c(-c3ccc4nncn4c3)nc2n(CCC)c1=O` [Compound 14, 1,3-Dipropyl-8-([1,2,4]triazolo[4,3,a]pyridin-6-yl)-1H-purine-2,6(3H, 7H)-dione]: 100 to 500 nM.
Next, `CCCn1c(=O)c2[nH]c(-c3ccc(-n4nc(-c5ccccc5)cc4N)nc3)nc2n(CCC)c1=O` [Compound 15, 8-(6-(5-Amino-3-phenyl-1H-pyrazol-1-yl)pyridin-3-yl)-1,3-dipropyl-1H-purine-2,6(3H, 7H)-dione]: less than 100 nM.
As for `CCCn1c(=O)c2[nH]c(-c3ccc(-n4nc(-c5ccco5)cc4N)nc3)nc2n(CCC)c1=O` [Compound 16, 8-(6-(5-Amino-3-(furan-2-yl)-1H-pyrazol-1-yl)pyridin-3-yl)-1,3-dipropyl-1H-purine-2,6(3H, 7H)-dione], the figure is less than 100 nM.
